According to patent publication US11141397B2, “Composition for improving efficacy of L-DOPA treatment” (priority 2017, dated 2021):
“Also recorded” adds a separate entry of the source.

Test system: intrastriatal rotenone mouse model for PD
Assay: Rotarod test (motor function) in the intrastriatal rotenone model
Format: in vivo, C57BL/6J mice
Procedure: Forty-eight seven week-old C57BL/6J mice (Charles River, The Netherlands) were housed at room temperature under a 12 h light/dark cycle. Food and water were provided ad libitum. […] Mice underwent stereotaxic surgery under isoflurane anesthesia: a hole was drilled in the skull and a cannula inserted in the right striatum at the following stereotaxic coordinates: AP +0.4, ML -2.0 from bregma, and DV -3.3 below dura. Rotenone-treated animals were injected with 5.4 μg of freshly prepared rotenone solution (dissolved in 2 μl DMSO). Sham-treated animals were injected with the vehicle (2 μl DMSO). 93 days after surgery the mice were euthanized by decapitation. The motor performance of each mouse was assessed in the Rotarod test as described in Inden et al. “Neurodegeneration of mouse nigrostriatal dopaminergic system induced by repeated oral administration of rotenone is prevented by 4-phenylbutyrate, a chemical chaperone” J. […] Briefly, mice were placed on an accelerating rod with speeds starting with 2 rpm and gradually increasing to 20 rpm. Time to first fall was recorded for a maximum of 300 s. […] Animals were divided into four groups of 12 animals (Sham+CD, Sham+AD, Rotenone+CD, and Rotenone+AD). […] The AD also contained supplementary amounts of choline, phospholipids, selenium, folic acid, and vitamins B6, B12, C, D, and E, above standard levels in the control diet. […] The rotarod test was started 1.5h after benserazide administration and performed as described below. […] ANOVAs were followed by a Tukey's multiple comparison test when appropriate. For the rotarod test performance over time, data were analyzed with a general linear model repeated measure ANOVA with the within subject factor time and the between subject factors surgery and diet. […] Analyses were performed using SPSS 22.0.

SMILES: N[C@@H](Cc1ccc(O)c(O)c1)C(=O)O [levodopa, L-3,4-di-hydroxy-phenylalanine]
- rotarod performance (time on rotarod) (days 26 and 27 after surgery, 60 minutes after 20 mg/kg oral levodopa vs vehicle, before dietary intervention, F(1,92)=24.77, p<0.0001): overall effect of levodopa on the animals' motor performances
- effect on rotenone-induced motor dysfunction (rotarod) (overall effect, day 65-93, FIG. 1, three-way ANOVA): there was an effect; also recorded: alleviated rotenone-induced motor dysfunction
- ability to remain on the rod (rotenone-injected mice on AD, levodopa 10 or 20 mg/kg vs saline or 5 mg/kg, day 65-93, p<0.001): better ability to remain on the rod
- rotarod performance (rotenone-treated animals on CD, levodopa 20 mg/kg vs 5 mg/kg or saline, day 65-93, p<0.01): performed significantly better
